Legend:
Assay type in all cases: in vivo
[1] = system: Renal hypertensive awaken rat; test: Anti-hypertensive activity in the renal hypertensive awaken rat (Grollman method), arterial pressure by bloodless method; conditions: oral; for ED20: read-out: ED20 orally
Protocol: Some illustrative results obtained in the renal hypertensive awaken rat according to the method of A. Grollman (Proc. Soc. Exptl. Biol. Med., 57, 102, 1944) are given in Table 1. The products were administered orally to groups of 4 rats for each dosage level. The arterial pressure was measured by bloodless method immediately before and at the 1st, 3rd, 5th, 7th, 12th, 24th, 36th, 48th and 60th hour after administration.
x ED20 = dose producing a 20% fall in pressure compared to the basal

[2] = Acute toxicity in the mouse, intraperitoneal (approximate LD50); conditions: in vivo, ip, 6 dosage levels, read-out: Mouse LD50 i.p.
Protocol: (§1) The evaluation of the acute toxicity was carried out in the mouse administering the products by the intraperitoneal route at 6 different dosage levels. The approximate LD50 was determined thereafter.

Mouse = test: as above; conditions: 6 dosage levels
Protocol: as §1

[3] = dose producing a 20% fall in pressure compared to the basal value

In the case of `C=CCN(CC=C)c1ccc(NNC(=O)OCC)nn1` [Example 5, 3-(2-Carbethoxyhydrazino)-6-diallylaminopyridazine], the “Time in hours of half effect appearance” value [1] was 48 h, the “Time in hours of maximum effect appearance” value [1] was 5 h and the ED20 [1, 3] was 1 mg/kg. For the same compound, the LD50 [2] was 300 mg/kg.
In the case of `CCOC(=O)NNc1ccc(N(CC)CC(C)O)nn1` (centres unmarked) [Example 6, 3-(2-Carbethoxyhydrazino)-6-[N-(2-hydroxypropyl)ethylamino]-pyridazine], the “Time in hours of half effect appearance” value [1] was 36 h, the “Time in hours of maximum effect appearance” value [1] was 5 h and the ED20 [1, 3] was 1 mg/kg. The LD50 [2] was 700 mg/kg.
For `CCOC(=O)NNc1ccc(N(C)CC(C)O)nn1` (centres unmarked) [Example 3, 3-(2-Carbethoxyhydrazino)-6-[N-(2-hydroxypropyl)methylamino]-pyridazine], the “Time in hours of half effect appearance” value [1] was 36 h, the “Time in hours of maximum effect appearance” value [1] was 5 h and the ED20 [1, 3] was 1 mg/kg. For the same compound, the LD50 [2] was 700 mg/kg.
For `NNc1nncc2ccccc12` [Hydralazine, reference compound], the “Time in hours of half effect appearance” value [1] was 5 h, the “Time in hours of maximum effect appearance” value [1] was 1 h and the ED20 [1, 3] was 3 mg/kg. For the same compound, the LD50 [2] was 100 mg/kg.
With `CCOC(=O)NNc1nncc2ccccc12` [Binazin, reference compound] the “Time in hours of half effect appearance” value [1] was 20 h, the “Time in hours of maximum effect appearance” value [1] was 3 h and the ED20 orally [1, 3] was 7 mg/kg. The “Mouse LD50 i.p.” value (Mouse) was 500 mg/kg.

— patent US4002753A, “6-Substituted 3-carbethoxyhydrazinopyridazines” (I.S.F. S.p.A., priority 1973, dated 1977)
